Laboratory results published in paper PMC8545574, “Antioxidant, Anti-Inflammatory, and Antidiabetic Activities of Bioactive Compounds from the Fruits of Livistona chinensis Based on Network Pharmacology Prediction” (Oxidative Medicine and Cellular Longevity, 2021).

Tests used:
[1] = DPPH free radical scavenging assay; type: biochemical; conditions: mean ± SD, n = 3
Description: The DPPH free radical scavenging assay was performed according to a previously reported method. A series of different concentrations of the tested samples and the positive control ascorbic acid were mixed with freshly prepared DPPH (0.2 mM) in a 96-well microplate with a total volume of 150 μL. After leaving the mixture to react in the dark for 30 min, its absorbance was determined at 517 nm. All of the wells with only samples were set as blanks to obtain an absorbance value, which was subtracted from the test sample readings. The percentage inhibition (%) for each sample was calculated by the following formula: (1) Inhibition %=Absblank−Abssamples/Absblank×100%, where Absblank and Abssamples correspond to the absorbance units (at 517 nm) of DPPH solutions incubated in the absence and presence of the tested samples.

[2] = ABTS radical cation scavenging assay; type: biochemical; conditions: mean ± SD, n = 3
Description: The ABTS radical cation (ABTS·+) was prepared by reacting ABTS with potassium persulfate following the method previously described. The ABTS radical cation (ABTS·+) was prepared by mixing with 2.45 mM potassium persulfate and equal volumes of an ABTS solution (7 mM), and then, they were permitted to react in the darkness at room temperature for 12–16 h. Thereafter, the ABTS reagent was diluted with methyl alcohol until reaching an absorbance of 0.70 ± 0.02 units at 734 nm. In a 96-well microplate, ABTS reagent (190 μL in each well) and samples (10 μL in each well) were incubated at room temperature for 20 min. To determine the antioxidant capacity by the ABTS method, the experimental conditions and protocol were identical to those of the DPPH assay. The only difference was that the absorbance was measured at 734 nm.

[3] = tested on: insulin-resistant HepG2 cells; experiment: Glucose consumption by insulin-resistant HepG2 cells; type: cell-based, human; conditions: for increase of glucose consumption: insulin resistance model of HepG2 cells, compounds at the dose of 50 μM, 24 h; for effect on glucose uptake (in words): insulin-resistant HepG2 cells
Description: HepG2 cells were cultivated in DMEM (without phenol red) containing 10% fetal bovine serum at 37°C in a humidified 5% CO2 atmosphere. An insulin-resistant cell model was established in accordance with a previous method, with some modifications. Cells were seeded in a 96-well plate with 1 × 10^4 cells per well. After incubation for 24 h, the medium was replaced with serum-free medium (without phenol red) containing 5 × 10^−6 mol/L insulin and incubated for 24 h. The cell culture medium was then replaced with the samples at different concentrations. The compounds were first dissolved in DMSO and subsequently diluted with medium containing 1% FBS to achieve different concentrations. The final concentration of DMSO was no more than 0.1%. At the end of the 24 h incubation, glucose in the medium was measured using the glucose oxidase-peroxidase method kit (Nanjing Jiancheng Biological Co., Ltd.). The amount of glucose consumption was calculated as follows: (glucose of the DMEM − glucose concentration of each well).

PTP1B [4] = target: T1, PTP1B (Homo sapiens, UniProt P18031); experiment: PTP1B inhibitory assay (p-NPP substrate)
T1 sequence (P18031 1-321 limits assumed): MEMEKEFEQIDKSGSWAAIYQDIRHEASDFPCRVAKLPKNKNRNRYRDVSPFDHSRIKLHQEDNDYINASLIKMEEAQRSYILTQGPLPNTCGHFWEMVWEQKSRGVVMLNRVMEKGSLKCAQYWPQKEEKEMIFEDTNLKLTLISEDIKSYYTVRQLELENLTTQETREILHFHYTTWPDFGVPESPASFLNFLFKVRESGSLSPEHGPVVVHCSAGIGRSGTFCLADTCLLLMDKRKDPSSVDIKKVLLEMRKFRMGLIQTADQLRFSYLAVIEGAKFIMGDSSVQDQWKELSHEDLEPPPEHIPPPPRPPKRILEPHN
Description: PTP1B (10 μg/mL stock solution) was dissolved in 10 mM citrate buffer (pH 6.0), 1 mM dithiothreitol (DTT), and 1 mM N, N, N′, N′-ethylenediaminetetraacetate (EDTA). 20.0 μL PTP1B stock solution and 60 μL citrate buffer were added to each well of a 96-well plastic plate.

[5] = target: α-Glucosidase (from Baker's yeast); experiment: α-Glucosidase inhibitory assay (p-NPG substrate); conditions: read-out: IC50 α-Glucosidase inhibitory effect; mean ± SD, n = 3
Description: The extract, fractions, and compounds were dissolved in 5% DMSO and then diluted with phosphate buffer. Briefly, 80 μL PBS, 20 μL of varying concentrations of sample solutions, and 20 μL α-glucosidase solution (1.3 U/mL) were mixed and incubated in 96-well plates at 37°C for 5 min. The reaction started when 20 μL p-nitrophenyl-α-D-glucopyranoside (2.5 mM) was added to the plate. The reaction mixture was incubated for 15 min at 37°C, and then, 80 μL Na2CO3 (0.2 M) was added to stop the reaction.

PTP1B [6] = target: T1, PTP1B; experiment: PTP1B enzyme inhibition kinetic study (Lineweaver-Burk and Dixon plots); type: biochemical; set-up: purchased Abcam (Shanghai) Trading Co., Ltd. ab51277; conditions: for Ki: determined by Dixon plots; for Inhibitory mode: determined by Lineweaver-Burk plots
Description: Lineweaver−Burk double reciprocal plot and Dixon plot were used to study the kinetic behavior of active compounds against PTP1B and the corresponding inhibition constants (Ki values). […] The plate reader recorded the absorbance of the reaction mixture every 3 mins. The enzymatic velocity of the enzyme reaction was calculated based on the time − Δabs plot. The Lineweaver−Burk plot and Dixon plot were generated by GraphPad Prism 8 in order to determine the type of PTP1B inhibition and Ki.

PTP1B [7] = target: T1, PTP1B; experiment: Fluorescence quenching measurement of PTP1B; type: binding; set-up: purchased Abcam (Shanghai) Trading Co., Ltd. ab51277; conditions: for Kd: read-out: K A (binding constant) (converted)
Description: 180 μL of the buffer with 10 μL of the PTP1B at the concentration used in the assays were added into the 96-well black plates followed by 10 μL different concentrations (0, 6.25, 9.37, 12.5, 18.75, 25, and 50 μM) of inhibitor. The excitation wavelength was set at 250 nm, and the fluorescence emission spectra were collected from 300-400 nm with an emission bandwidth of 2 nm. The quenching parameters such as the Stern-Volmer constant (KSV), binding constant (KA), and the number of binding sites (n) were determined by the formula [33]. (4) F0/F=1+KSVQf,logFo−F/F=logKA+nlogQf, where F0 and F are the fluorescence intensities in the absence and presence of a quencher and [Q]f is a concentration of compounds.

[8] = tested on: LPS-stimulated NO release in RAW 264.7 cells; experiment: Nitrite (Griess) assay of LPS-stimulated NO release; type: cell-based; conditions: Mus musculus, RAW264.7, LPS (1 μg/mL)-stimulated RAW 264.7 cells; mean ± SD, n = 3; read-out: IC50 NO production anti-inflammatory effect
Description: The level of NO production was tested by measuring the nitrite level in the culture medium with the Griess method. Cells were seeded at a density of 2 × 10^4 cells per well in 96-well plates. […] A microplate reader was employed for the optical density measurement at 570 nm.

| Compound | IC50 [1] | IC50 [2] | increase of glucose consumption [3] | effect on glucose uptake (in words) [3] | IC50 (PTP1B [4]) | IC50 [5] | Ki (PTP1B [6]) | Inhibitory mode (PTP1B [6]) | K SV (Stern-Volmer constant) (PTP1B [7]) | n (number of binding sites) (PTP1B [7]) | Kd (PTP1B [7]) | IC50 [8] |
| --- | --- | --- | --- | --- | --- | --- | --- | --- | --- | --- | --- | --- |
| COC1(C)CC2c3c(cc(O)cc3O1)OC(c1ccc(O)c(O)c1)C2O (stereo not drawn) [Compound 1, Livischinol] | 46.8 ± 1.53 µM | 34.91 ± 0.07 µM | 48.9% | stimulated glucose uptake | 9.41 ± 0.08 µM | 37.3 ± 0.74 µM | 1.49 µM | Competitive | 37000 L/mol | 1.08 | 10.5 µM |  |
| COc1c(O)cc(O)c2c(=O)cc(-c3ccccc3)oc12 [Compound 6, wogonin] | 99.36 ± 0.44 µM | > 100 µM |  | little effect | 22.2 ± 0.58 µM | > 100 µM | 4.18 µM | Mixed-type | 22000 L/mol | 1.12 | 76.9 µM | 49.4 ± 1.85 µM |
| COc1cc(CCCO)ccc1O[C@@H](CO)[C@H](O)c1cc(OC)c(O)c(OC)c1 [Compound 21] | > 100 µM | 93 ± 0.54 µM |  |  | 67 ± 1.2 µM | 61.8 ± 0.76 µM |  |  |  |  |  | 55.54 ± 0.41 µM |
| COc1cc([C@@H](O)[C@H](CO)Oc2ccc(CCCO[C@@H]3O[C@H](CO)[C@@H](O)[C@H](O)[C@H]3O)cc2OC)ccc1O [Compound 22, erythro-(7R,8S)-4,7,9,9′-tetrahydroxy-3,3′-dimethoxy-8-O-4′-neolignan-9′-O-β-D-glucopyranoside] | > 100 µM | 26.97 ± 0.21 µM |  |  | 92.39 ± 0.71 µM | 73.1 ± 2.33 µM |  |  |  |  |  | 83.16 ± 0.24 µM |
| COc1cc([C@H](O)[C@H](CO)Oc2ccc(CCCO[C@@H]3O[C@H](CO)[C@@H](O)[C@H](O)[C@H]3O)cc2OC)ccc1O [Compound 23, threo-(7R,8R)-4,7,9,9′-tetrahydroxy-3,3′-dimethoxy-8-O-4′-neolignan-9′-O-β-D-glucopyranoside] | > 100 µM | 68.2 ± 0.76 µM |  |  | 90.06 ± 0.47 µM | 82.12 ± 0.56 µM |  |  |  |  |  | 73.16 ± 0.34 µM |
| COc1cc([C@H]2OC[C@H]3[C@@H]2CO[C@@H]3c2cc(OC)c(O)c(OC)c2)ccc1O [Compound 30, (+)-medioresinol] | 95.7 ± 2.44 µM | 25.58 ± 0.12 µM |  |  | 26.75 ± 0.21 µM | 34.4 ± 0.5 µM |  |  |  |  |  | 55.5 ± 1.85 µM |
| COc1cc([C@@H](O)[C@H](CO)Oc2ccc([C@@H]3OC[C@@H]4[C@H]3CO[C@H]4c3ccc(O)c(OC)c3)cc2OC)ccc1O [Compound 32] | 96.4 ± 2.26 µM | 40.63 ± 0.23 µM |  |  | 81.93 ± 0.78 µM | 5.71 ± 0.17 µM |  |  |  |  |  | 46.2 ± 0.67 µM |
| COc1cc([C@@H](O)[C@H](CO)Oc2c(OC)cc([C@@H]3OC[C@@H]4[C@H]3CO[C@H]4c3cc(OC)c(O)c(OC)c3)cc2OC)ccc1O [Compound 35, (7R,7′R,7^″R,8S,8′S,8^″S)-4′,4^″-dihydroxy-3,3′,3^″,5,5′-pentamethoxy-7,9′:7′,9-diepoxy-4,8^″-oxy-8,8′-sesquineolignan-7^″,9^″-diol] | 65.9 ± 1.52 µM | 31.18 ± 0.24 µM |  |  | 63.16 ± 0.3 µM | 19.7 ± 0.21 µM |  |  |  |  |  | 26.2 ± 0.19 µM |
| COc1cc([C@H]2OC[C@H]3[C@H]2CO[C@@H]3c2cc(OC)c(O[C@@H](CO)[C@@H](O)c3cc(OC)c(O)c(OC)c3)c(OC)c2)cc(OC)c1O [Compound 36, (7S,7′S,7^″S,8R,8′R,8^″R)-4′,4^″-dihydroxy-3,3′,3^″,5,5′,5^″-hexamethoxy-7,9′:7′,9-diepoxy-4,8^″-oxy-8,8′-sesquineolignan-7^″,9^″-diol] | 62.44 ± 0.42 µM | 31.1 ± 0.44 µM |  |  | 63.19 ± 0.33 µM | 22.7 ± 1.07 µM |  |  |  |  |  | 79.7 ± 1.17 µM |
| COc1cc(O)cc2c1C(=O)c1c(cc(C)c(C(=O)OCC(O)CO)c1O)C2=O (stereo not drawn) [Compound 44, variecolorquinones A] | 23.1 ± 0.27 µM | 13 ± 0.27 µM | 42.8% | stimulated glucose uptake | 15.8 ± 0.29 µM | 29.6 ± 0.4 µM | 2.8 µM | Competitive | 23000 L/mol | 0.97 | 17.2 µM |  |
| CN(CCOc1ccc(CC2SC(=O)NC2=O)cc1)c1ccccn1 (stereo not drawn) [rosiglitazone, reference compound] |  |  | 46.7% |  |  |  |  |  |  |  |  |  |
